Target: T1, glucocorticoid receptor (Homo sapiens, UniProt P04150)
T1 construct: endogenous in cells; host or cells: HeLa (ATCC) cell lysate supernatant
T1 sequence (P04150 1-777): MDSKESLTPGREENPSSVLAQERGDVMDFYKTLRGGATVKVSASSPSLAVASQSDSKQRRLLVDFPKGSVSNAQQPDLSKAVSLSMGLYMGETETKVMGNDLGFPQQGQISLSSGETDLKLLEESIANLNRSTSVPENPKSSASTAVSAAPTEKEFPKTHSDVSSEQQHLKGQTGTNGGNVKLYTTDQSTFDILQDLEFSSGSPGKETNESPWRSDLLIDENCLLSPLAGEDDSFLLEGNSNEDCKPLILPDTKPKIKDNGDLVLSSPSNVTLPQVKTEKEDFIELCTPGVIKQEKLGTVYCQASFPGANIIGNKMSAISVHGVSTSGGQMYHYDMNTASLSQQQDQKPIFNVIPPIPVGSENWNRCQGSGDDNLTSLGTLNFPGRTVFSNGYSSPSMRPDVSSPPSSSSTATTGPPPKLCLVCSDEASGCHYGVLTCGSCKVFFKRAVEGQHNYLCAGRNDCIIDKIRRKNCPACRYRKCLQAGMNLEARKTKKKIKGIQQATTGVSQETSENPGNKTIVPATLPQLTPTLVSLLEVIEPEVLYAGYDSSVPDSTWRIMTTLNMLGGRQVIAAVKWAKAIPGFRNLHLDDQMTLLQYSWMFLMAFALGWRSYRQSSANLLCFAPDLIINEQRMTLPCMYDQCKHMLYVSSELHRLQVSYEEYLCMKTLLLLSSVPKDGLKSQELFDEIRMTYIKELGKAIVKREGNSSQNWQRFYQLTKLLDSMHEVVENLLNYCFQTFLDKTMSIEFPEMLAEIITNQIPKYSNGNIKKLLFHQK
Test: Ligand binding assay (GRBind), 3H-dexamethasone displacement in HeLa cell lysate
Conditions: 3H-DEX tracer
Method in brief: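 Cytosolic supernatant from HeLa cells in TEGM buffer (pH 7.2, with molybdate) was incubated overnight at 4 °C with 3H-dexamethasone (6 nM trace solution) and serially diluted compound, with 2% ethanol. Bound receptor was captured on hydroxylapatite, filtered and counted by scintillation. IC50s were calculated using dexamethasone as reference.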

SMILES	Ki [nM]
NC(=O)C(O)c1ccccc1CC[C@]1(O)CCC2=Cc3c(cnn3-c3ccc(F)cc3)C[C@@]21C1CC1 (single isomer, unassigned) [Example 3a]	1.8
OC(C[C@]1(O)CCC2=Cc3c(cnn3-c3ccc(F)cc3)C[C@@]21C1CC1)c1ccc(F)cn1 (single isomer, unassigned) [Example 79b]	1.55
CC[C@]12Cc3cnn(-c4ccccc4)c3C=C1CC[C@@]2(O)CC(O)c1ccccn1 (single isomer, unassigned) [Example 82a]	11.3
CC[C@]12Cc3cnn(-c4ccccc4)c3C=C1CC[C@@]2(O)CC(O)c1ccccn1 (single isomer, unassigned) [Example 82b]	5.46
OCc1ccccc1CC[C@]1(O)CCC2=Cc3c(cnn3-c3ccc(F)cc3)C[C@@]21C1CC1 [Example 2, (4aR,5R)-4a-Cyclopropyl-1-(4-fluorophenyl)-5-{2-[2-(hydroxymethyl)phenyl]ethyl}-1,4,4a,5,6,7-hexahydrocyclopenta[f]indazol-5-ol]	1.32
CC[C@]12Cc3cnn(-c4ccc(F)cc4)c3C=C1CC[C@@]2(O)CCc1ncccc1S(C)(=O)=O [Example 80, (4aS,5R)-4a-Ethyl-1-(4-fluorophenyl)-5-{2-[3-(methylsulfonyl)pyridin-2-yl]ethyl}-1,4,4a,5,6,7-hexahydrocyclopenta[f]indazol-5-ol]	1.32
CC[C@]12Cc3cnn(-c4ccccc4)c3C=C1CC[C@@]2(O)CCc1ncccc1S(=O)(=O)C(C)C [Example 81, (4aS,5R)-4a-Ethyl-5-{2-[3-(iso-propylsulfonyl)pyridin-2-yl]ethyl}-1-phenyl-1,4,4a,5,6,7-hexahydrocyclopenta[f]indazol-5-ol]	7.3
